Reference: patent publication US11352363B1, “Spiropyrrolidine derived antiviral agents” (Enanta Pharmaceuticals, Inc., priority 2020, dated 2022)

The compounds below were run against SARS-CoV-2 3CL-protease (Severe acute respiratory syndrome coronavirus 2 (2019-nCoV) (SARS-CoV-2), UniProt P0DTD1) (assay: SARS-CoV-2 3C-like (3CL) protease fluorescence assay (FRET)). Details: not given.
Type: biochemical

SMILES | IC50 [nM]
CC(C)C[C@@H](C(=O)N1C[C@]2(C[C@H]1C#N)C(=O)Nc1ccccc12)N(C)C(=O)c1cc2cc(F)cc(F)c2[nH]1 [Compound 68] | < 100
CC(OC(C)(C)C)[C@H](NC(=O)OCc1ccccc1)C(=O)N1C[C@]2(C[C@H]1C#N)C(=O)Nc1ccccc12 (some centres unmarked) [Compound 6] | > 1000

Same assay, conditions: read-out: FRET IC50

SMILES | IC50 [nM]
COc1cccc2[nH]c(C(=O)N[C@@H](CC(C)C)C(=O)N3C[C@]4(C[C@H]3C#N)C(=O)Nc3ccccc34)cc12 [Compound 11] | < 100
CC(C)C[C@@H](C(=O)N1C[C@]2(C[C@H]1C#N)C(=O)Nc1ccccc12)N(C)C(=O)c1cc2c(F)c(Cl)ccc2[nH]1 [Compound 73] | < 100
CC(C)C[C@@H](C(=O)N1C[C@]2(C[C@H]1C#N)C(=O)Nc1ccccc12)N(C)C(=O)c1cc2ccc(F)cc2[nH]1 [Compound 50] | < 100
CC(C)CC[C@@H](C(=O)N1C[C@]2(C[C@H]1C#N)C(=O)Nc1ccccc12)N(C)C(=O)OCc1ccccc1 [Compound 100] | < 100
CC(C)C[C@@H](C(=O)N1C[C@]2(C[C@H]1C(O)S(=O)(=O)O)C(=O)Nc1ccccc12)N(C)C(=O)c1cc2c(F)cccc2[nH]1 (some centres unmarked) [Compound 30] | < 100
COc1cccc2[nH]c(C(=O)N[C@@H](CC3CC3)C(=O)N3C[C@]4(C[C@H]3C#N)C(=O)Nc3ccccc34)cc12 [Compound 19] | < 100
CC(C)C[C@@H](C(=O)N1C[C@]2(C[C@H]1C#N)C(=O)Nc1ccccc12)N(C)C(=O)c1cc2cc(Cl)cc(Cl)c2[nH]1 [Compound 76] | < 100
CN(C(=O)c1cc2c(F)cccc2[nH]1)[C@@H](CC1CCCCC1)C(=O)N1C[C@]2(C[C@H]1C#N)C(=O)Nc1ccccc12 [Compound 110] | < 100
COc1cccc2[nH]c(C(=O)N[C@@H](CC(C)(C)C)C(=O)N3C[C@]4(C[C@H]3C#N)C(=O)Nc3ccccc34)cc12 [Compound 15] | < 100
CN(C(=O)c1cc2c(OC3CC3)cccc2[nH]1)[C@@H](CC1CCC1)C(=O)N1C[C@]2(C[C@H]1C#N)C(=O)Nc1ccccc12 [Compound 94] | < 100
CC(C)(C)[C@H](NC(=O)c1cc2c(F)cccc2[nH]1)C(=O)N1C[C@]2(C[C@H]1C#N)C(=O)Nc1ccccc12 [Compound 18] | > 1000
COc1cccc2[nH]c(C(=O)N(C)[C@@H](CC3CCCC3)C(=O)N3C[C@]4(C[C@H]3C#N)C(=O)Nc3ccccc34)cc12 [Compound 106] | < 100
CN(C(=O)c1cc2c(F)cccc2[nH]1)[C@@H](Cc1ccccc1)C(=O)N1C[C@]2(C[C@H]1C#N)C(=O)Nc1ccccc12 [Compound 80] | < 100
CC(C)C[C@@H](C(=O)N1C[C@]2(C[C@H]1C#N)C(=O)Nc1ccccc12)N(C)C(=O)c1cc2c(OC(F)F)cccc2[nH]1 [Compound 51] | < 100
CN(C(=O)OCc1ccccc1)[C@@H](CC1CCC1)C(=O)N1C[C@]2(C[C@H]1C#N)C(=O)Nc1ccccc12 [Compound 89] | < 100
COc1cccc2[nH]c(C(=O)N[C@@H](CC(C)C)C(=O)N3C[C@]4(C[C@H]3C(=O)O)C(=O)Nc3ccccc34)cc12 [Compound 37] | 100 to 1000
CC(C)C[C@@H](C(=O)N1C[C@]2(C[C@H]1C#N)C(=O)Nc1ccccc12)N(C)C(=O)c1cc2c(F)cccc2[nH]1 [Compound 44] | < 100
CC(C)C[C@@H](C(=O)N1C[C@]2(C[C@H]1C#N)C(=O)Nc1ccccc12)N(C)C(=O)OCc1ccccc1 [Compound 39] | < 100
COc1cccc2[nH]c(C(=O)N(C)[C@@H](CC3CCC3)C(=O)N3C[C@]4(C[C@H]3C#N)C(=O)Nc3ccccc34)cc12 [Compound 92] | < 100

SMILES | IC50 [nM]
CCCN(C(=O)c1cc2c(F)cccc2[nH]1)[C@@H](CC(C)C)C(=O)N1C[C@]2(C[C@H]1C#N)C(=O)Nc1ccccc12 [Compound 98] | < 100
CC(C)C[C@@H](C(=O)N1C[C@]2(C[C@H]1C#N)C(=O)Nc1ccccc12)N(C)C(=O)c1cc2cc(F)ccc2[nH]1 [Compound 70] | < 100
CC(C)C[C@@H](C(=O)N1C[C@]2(C[C@H]1C#N)C(=O)Nc1ccccc12)N(C)C(=O)c1cc2c(Cl)cccc2[nH]1 [Compound 65] | < 100
Cc1c(C(=O)N(C)[C@@H](CC(C)C)C(=O)N2C[C@]3(C[C@H]2C#N)C(=O)Nc2ccccc23)[nH]c2cc(F)cc(F)c12 [Compound 47] | < 100
CN(C(=O)c1cc2c(F)c(F)ccc2[nH]1)[C@@H](CC1CCCCC1)C(=O)N1C[C@]2(C[C@H]1C#N)C(=O)Nc1ccccc12 [Compound 112] | < 100
CN(C(=O)OCc1ccccc1)[C@@H](CC1CC1)C(=O)N1C[C@]2(C[C@H]1C#N)C(=O)Nc1ccccc12 [Compound 102] | < 100
CC(C)C[C@@H](C(=O)N1C[C@]2(C[C@H]1C#N)C(=O)Nc1ccccc12)N(C)C(=O)c1cc2c(F)ccc(F)c2[nH]1 [Compound 71] | < 100
COc1ccc(Cl)c(C(=O)N(C)[C@@H](CC(C)C)C(=O)N2C[C@]3(C[C@H]2C#N)C(=O)Nc2ccccc23)c1 [Compound 58] | < 100
COc1cccc2[nH]c(C(=O)N[C@@H](CC(C)C)C(=O)N3C[C@]4(C[C@H]3C(=O)NS(=O)(=O)C3CC3)C(=O)Nc3ccccc34)cc12 [Compound 38] | > 1000
CC(C)C[C@@H](C(=O)N1C[C@]2(C[C@H]1C(=O)C(=O)NC1CC1)C(=O)Nc1ccccc12)N(C)C(=O)c1cc2c(F)cccc2[nH]1 [Compound 36] | 100 to 1000
CC(C)C[C@@H](C(=O)N1C[C@]2(C[C@H]1C#N)C(=O)Nc1ccccc12)N(C)C(=O)c1cc2ccc(-c3ccccc3)cc2[nH]1 [Compound 55] | < 100
CC(C)C[C@@H](C(=O)N1C[C@]2(C[C@H]1C(=O)C(=O)NC1CCCCC1)C(=O)Nc1ccccc12)N(C)C(=O)c1cc2c(F)cccc2[nH]1 [Compound 35] | > 1000
CC(C)C[C@H](NC(=O)NCc1ccccc1)C(=O)N1C[C@]2(C[C@H]1C#N)C(=O)Nc1ccccc12 [Compound 122] | < 100
COc1cccc2[nH]c(C(=O)N(C)[C@@H](CC3CC3)C(=O)N3C[C@]4(C[C@H]3C#N)C(=O)Nc3ccccc34)cc12 [Compound 114] | < 100
COc1cccc2[nH]c(C(=O)N[C@@H](CC(C)C)C(=O)N3C[C@]4(C[C@H]3C#N)C(=O)N(C)c3ccccc34)cc12 [Compound 120] | 100 to 1000
CC(C)C[C@@H](C(=O)N1C[C@]2(C[C@H]1C#N)C(=O)Nc1ccccc12)N(C)C(=O)c1[nH]c2ccccc2c1-c1ccccc1 [Compound 48] | 100 to 1000
CC(C)C[C@@H](C(=O)N1C[C@]2(C[C@H]1C#N)C(=O)Nc1ccccc12)N(C)C(=O)c1c(Cl)cccc1Cl [Compound 64] | < 100
CC(C)(C)[C@H](NC(=O)OCc1ccccc1)C(=O)N1C[C@]2(C[C@H]1C#N)C(=O)Nc1ccccc12 [Compound 3] | > 1000
CC(C)C[C@@H](C(=O)N1C[C@]2(C[C@H]1C#N)C(=O)Nc1ccccc12)N(C)C(=O)c1cc2c(Cl)cc(F)cc2[nH]1 [Compound 72] | < 100

SMILES | IC50 [nM]
CN(C(=O)c1cc2c(F)cc(F)cc2[nH]1)[C@@H](CC1CCCCC1)C(=O)N1C[C@]2(C[C@H]1C#N)C(=O)Nc1ccccc12 [Compound 111] | < 100
COc1cccc2[nH]c(C(=O)N(C)[C@@H](CC(C)(C)C)C(=O)N3C[C@]4(C[C@H]3C#N)C(=O)Nc3ccccc34)cc12 [Compound 85] | < 100
CC(C)C[C@@H](C(=O)N1C[C@]2(C[C@H]1C#N)C(=O)Nc1ccccc12)N(C)C(=O)c1ccc(F)cc1Cl [Compound 61] | < 100
CC(C)C[C@H](NC(=O)OCc1ccccc1)C(=O)N1C[C@]2(C[C@H]1C#N)C(=O)Nc1ccccc12 [Compound 1] | 100 to 1000
N#C[C@@H]1C[C@@]2(CN1C(=O)[C@H](CC1CCC1)NC(=O)OCc1ccccc1)C(=O)Nc1ccccc12 [Compound 2] | < 100
CN(C(=O)c1cc2c(F)cc(F)cc2[nH]1)[C@@H](CC1CC1)C(=O)N1C[C@]2(C[C@H]1C#N)C(=O)Nc1ccccc12 [Compound 115] | < 100
CC(C)C[C@@H](C(=O)N1C[C@]2(C[C@H]1C#N)C(=O)Nc1ccccc12)N(C)C(=O)c1cc2c(OC(F)(F)F)cccc2[nH]1 [Compound 49] | < 100
CC(C)(C)C[C@H](NC(=O)OCc1ccccc1)C(=O)N1C[C@]2(C[C@H]1C#N)C(=O)Nc1ccccc12 [Compound 5] | < 100
COc1cccc2[nH]c(C(=O)N(C)[C@@H](CC3CCCCC3)C(=O)N3C[C@]4(C[C@H]3C#N)C(=O)Nc3ccccc34)cc12 [Compound 113] | < 100
CC(C)C[C@H](NC(=O)c1cc2c(F)cccc2[nH]1)C(=O)N1C[C@]2(C[C@H]1C#N)C(=O)Nc1ccccc12 [Compound 27] | < 100
CCN(C(=O)OCc1ccccc1)[C@@H](CC(C)C)C(=O)N1C[C@]2(C[C@H]1C#N)C(=O)Nc1ccccc12 [Compound 90] | < 100
COc1cccc2[nH]c(C(=O)N(C)[C@@H](CC(C)C)C(=O)N3C[C@]4(C[C@H]3C#N)C(=O)N(C)c3ccccc34)cc12 [Compound 121] | < 100
CC(C)C[C@@H](C(=O)N1C[C@]2(C[C@H]1C#N)C(=O)Nc1ccccc12)N(C)C(=O)c1cc2c(OC3CC3)cccc2[nH]1 [Compound 82] | < 100
COc1cccc2[nH]c(C(=O)N[C@@H](CC(C)C)C(=O)N3C[C@]4(C[C@H]3C(=O)C(=O)NC3CCCCC3)C(=O)Nc3ccccc34)cc12 [Compound 33] | < 100
CC(C)C[C@@H](C(=O)N1C[C@]2(C[C@H]1C#N)C(=O)Nc1ccccc12)N(C)C(=O)c1cc2cc(C(C)C)ccc2[nH]1 [Compound 84] | < 100
COc1cccc2[nH]c(C(=O)N[C@@H](CC(C)C)C(=O)N3C[C@]4(C[C@H]3C(=O)C(=O)NC3CC3)C(=O)Nc3ccccc34)cc12 [Compound 31] | 100 to 1000
C=CCN(C(=O)OCc1ccccc1)[C@@H](CC(C)C)C(=O)N1C[C@]2(C[C@H]1C#N)C(=O)Nc1ccccc12 [Compound 96] | < 100
CN(C(=O)OCc1ccccc1)[C@@H](CC(C)(C)F)C(=O)N1C[C@]2(C[C@H]1C#N)C(=O)Nc1ccccc12 [Compound 101] | < 100
COc1cccc2[nH]c(C(=O)N[C@@H](CC(C)C)C(=O)N3C[C@]4(C[C@H]3C(=O)C(=O)NCc3ccccc3)C(=O)Nc3ccccc34)cc12 [Compound 32] | < 100
